Assay [1] has as its target T1, HCV polymerase (NS5B) type 1a (Hepatitis C virus genotype 1a, UniProt P26664).
T1 construct: made in house; host or cells: Escherichia coli (by the 'similar method' of the 1b enzyme)
As to the kind of experiment: Assay of enzyme (HCV polymerase) inhibitory activity, type 1a enzyme. It counts as biochemical, HCV type 1a (cloned from the blood of patients). The note with it: HCV polymerase inhibitory activity IC50, 1a, type 1a enzyme. Summed up:
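Patient-derived type 1a NS5B (C-terminal 47-aa deletion, His-tagged, E. coli-expressed) at 1.5 μg/ml was reacted with 5 μg/ml 3′UTR-containing substrate RNA, 50 μM ATP/GTP/CTP, 2 μM UTP plus [3H]UTP, pH 7.5, 25° C for 60 min. TCA-precipitated RNA radioactivity was counted; IC50 from ± compound.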

The target in assay [2] is T2, HCV polymerase (NS5B) type 1b (Hepatitis C virus genotype 1b, UniProt P26663).
T2 construct: a region encoding NS5B (J Virol 1991 March, 65(3), 1105-13, 544 amino acids after deletion of 47 amino acids on the C-terminal); 6xHis (C); made in house; host or cells: Escherichia coli
As to the kind of experiment: Assay of enzyme (HCV polymerase) inhibitory activity, type 1b enzyme. The note with it: HCV polymerase inhibitory activity IC50, 1b, type 1b enzyme. Type of assay: biochemical, HCV BK strain (type 1b). The essentials: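 NS5B from HCV BK strain (type 1b), C-terminal 47 aa deleted, C-terminal His6-tagged, E. coli-expressed, 0.5 μg/ml, with ~450 nt substrate RNA carrying the 3′ UTR (polyU, 3′X) at 5 μg/ml. Incubation 60 min at 25 °C with 50 μM ATP/GTP/CTP, 2 μM UTP plus [3H]UTP, pH 7.5 Tris.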

For `CCCc1ccc(CNC(=O)[C@H]2CN(c3nc(C)c(C(O)C(=O)OCC)s3)CCN2S(=O)(=O)c2ccc(OC(F)(F)F)cc2)cc1` (stereo partly drawn) [Example 856, hydroxy-{4-methyl-2-[(R)-3-(4-propyl-benzylcarbamoyl)-4-(4-trifluoromethoxy-benzenesulfonyl)-piperazin-1-yl]-thiazol-5-yl}-acetic acid ethyl ester], the half-maximal inhibitory concentration (IC50) (in general, the midpoint of a concentration-inhibition curve) in assay [1] was 0.1 to 1 µM; in assay [2], under 0.1 µM.
The like results for `CCCc1ccc(CNC(=O)[C@H]2CN(c3cnc4cncnc4n3)CCN2S(=O)(=O)c2ccc(OC(F)(F)F)cc2)s1` [Example 857, (R)-4-pteridin-7-yl-1-(4-trifluoromethoxy-benzenesulfonyl)-piperazine-2-carboxylic acid (5-propyl-thiophen-2-ylmethyl)-amide] were, in that order, under 0.1 µM and under 0.1 µM.
The like results for `CCC(C)(C)c1ccc(CNC(=O)[C@H]2CN(c3cnc4cncc(C(=O)O)c4n3)CCN2S(=O)(=O)c2ccc(Cl)s2)cc1` [Example 858, 2-{(R)-4-(5-chloro-thiophene-2-sulfonyl)-3-[4-(1,1-dimethyl-propyl)-benzylcarbamoyl]-piperazin-1-yl}-pyrido[3,4-b]pyrazine-8-carboxylic acid] were, in that order, under 0.1 µM and under 0.1 µM.
The like results for `CCCc1ccc(CNC(=O)[C@H]2CN(c3nc(C)c(C(=O)C(=O)NC)s3)CCN2S(=O)(=O)c2ccc(OC(F)(F)F)cc2)cc1` [Example 859, (R)-4-(4-methyl-5-methylaminooxalyl-thiazol-2-yl)-1-(4-trifluoromethoxy-benzenesulfonyl)-piperazine-2-carboxylic acid 4-propyl-benzylamide] were, in that order, 0.1 to 1 µM and under 0.1 µM.
Take `CCCc1ccc(CNC(=O)[C@H]2CN(c3cnc4cncc(C(=O)O)c4n3)CCN2S(=O)(=O)c2ccc(Cl)s2)cc1` [Example 860, 2-[(R)-4-(5-chloro-thiophene-2-sulfonyl)-3-(4-propyl-benzylcarbamoyl)-piperazin-1-yl]-pyrido[3,4-b]pyrazine-8-carboxylic acid]: the IC50 in assay [1] and in assay [2] was under 0.1 µM each time.
Consider `O=C(O)c1cncc2ncc(N3CCN(S(=O)(=O)c4ccc(Cl)s4)[C@@H](C(=O)NCc4ccc(OC(F)(F)F)cc4)C3)nc12` [Example 861, 2-[(R)-4-(5-chloro-thiophene-2-sulfonyl)-3-(4-trifluoromethoxy-benzylcarbamoyl)-piperazin-1-yl]-pyrido[3,4-b]pyrazine-8-carboxylic acid], for which the IC50 in assay [1] and in assay [2] was under 0.1 µM in each case.
Take `CCCc1ccc(CNC(=O)[C@H]2CN(c3nc4c(C(=O)OCC)n[nH]c(=O)c4s3)CCN2S(=O)(=O)c2ccc(CC)cc2)cc1` [Example 862, 2-[(R)-4-(4-ethyl-benzenesulfonyl)-3-(4-propyl-benzylcarbamoyl)-piperazin-1-yl]-7-oxo-6,7-dihydro-thiazolo[4,5-d]pyridazine-4-carboxylic acid ethyl ester]: the IC50 in assay [1] and in assay [2] was under 0.1 µM each time.
In the case of `CCCc1ccc(CNC(=O)[C@H]2CN(c3nc4c(C(=O)O)n[nH]c(=O)c4s3)CCN2S(=O)(=O)c2ccc(CC)cc2)cc1` [Example 863, 2-[(R)-4-(4-ethyl-benzenesulfonyl)-3-(4-propyl-benzylcarbamoyl)-piperazin-1-yl]-7-oxo-6,7-dihydro-thiazolo[4,5-d]pyridazine-4-carboxylic acid], the IC50 in assay [1] and in assay [2] was under 0.1 µM throughout.
On to `O=C(NCc1ccc(OC(F)(F)F)cc1)[C@H]1CN(c2nc3cn[nH]c(=O)c3s2)CCN1S(=O)(=O)c1ccc(F)cc1` [Example 864, (R)-1-(4-fluoro-benzenesulfonyl)-4-(7-oxo-6,7-dihydro-thiazolo[4,5-d]pyridazin-2-yl)-piperazine-2-carboxylic acid 4-trifluoromethoxy-benzylamide], for which the IC50 in assay [1] was 0.1 to 1 µM; in assay [2], under 0.1 µM.
The like results for `CNC(=O)c1cncc2ncc(N3CCN(S(=O)(=O)c4ccc(OC(F)(F)F)cc4)[C@@H](C(=O)NCc4ccc(OC(F)(F)F)cc4)C3)nc12` [Example 865, 2-[(R)-4-(4-trifluoromethoxy-benzenesulfonyl)-3-(4-trifluoromethoxy-benzylcarbamoyl)-piperazin-1-yl]-pyrido[3,4-b]pyrazine-8-carboxylic acid methylamide] were, in that order, under 0.1 µM and under 0.1 µM.
The like results for `CN(C)C(=O)c1cncc2ncc(N3CCN(S(=O)(=O)c4ccc(OC(F)(F)F)cc4)[C@@H](C(=O)NCc4ccc(OC(F)(F)F)cc4)C3)nc12` [Example 866, 2-[(R)-4-(4-trifluoromethoxy-benzenesulfonyl)-3-(4-trifluoromethoxy-benzylcarbamoyl)-piperazin-1-yl]-pyrido[3,4-b]pyrazine-8-carboxylic acid dimethylamide] were, in that order, under 0.1 µM and under 0.1 µM.
The like results for `O=C(NCC1CN(c2ccccc2)C1)[C@H]1CN(c2cnc3cncnc3n2)CCN1S(=O)(=O)c1ccc(OC(F)(F)F)cc1` [Example 867, (R)-4-pteridin-7-yl-1-(4-trifluoromethoxy-benzenesulfonyl)-piperazine-2-carboxylic acid (1-phenyl-azetidin-3-ylmethyl)-amide] were, in that order, 0.1 to 1 µM and 0.1 to 1 µM.
On to `CCCc1ccc(CNC(=O)[C@H]2CN(c3nc(Cl)c(C(=O)O)s3)CCN2S(=O)(=O)c2ccc(CC)cc2)cc1` [Example 868, 4-chloro-2-[(R)-4-(4-ethyl-benzenesulfonyl)-3-(4-propyl-benzylcarbamoyl)-piperazin-1-yl]-thiazole-5-carboxylic acid], for which the IC50 in assay [1] and in assay [2] was under 0.1 µM in each case.
As to `O=C(NCc1ccc(OC(F)(F)F)cc1)[C@H]1CN(c2nc3cnnc(Cl)c3s2)CCN1S(=O)(=O)c1ccc(OC(F)(F)F)cc1` [Example 869, (R)-4-(7-chloro-thiazolo[4,5-d]pyridazin-2-yl)-1-(4-trifluoromethoxy-benzenesulfonyl)-piperazine-2-carboxylic acid 4-trifluoromethoxy-benzylamide], the IC50 in assay [1] and in assay [2] was under 0.1 µM in each case.
On to `O=C(NCc1ccc(OC(F)(F)F)cc1)[C@H]1CN(c2nc3c(CO)n[nH]c(=O)c3s2)CCN1S(=O)(=O)c1ccc(OC(F)(F)F)cc1` [Example 870, (R)-4-(4-hydroxymethyl-7-oxo-6,7-dihydro-thiazolo[4,5-d]pyridazin-2-yl)-1-(4-trifluoromethoxy-benzenesulfonyl)-piperazine-2-carboxylic acid 4-trifluoromethoxy-benzylamide], for which the IC50 in assay [1] and in assay [2] was under 0.1 µM in each case.
Consider `CC(C)NC(=O)c1cncc2ncc(N3CCN(S(=O)(=O)c4ccc(OC(F)(F)F)cc4)[C@@H](C(=O)NCc4ccc(OC(F)(F)F)cc4)C3)nc12` [Example 871, 2-[(R)-4-(4-trifluoromethoxy-benzenesulfonyl)-3-(4-trifluoromethoxy-benzylcarbamoyl)-piperazin-1-yl]-pyrido[3,4-b]pyrazine-8-carboxylic acid isopropylamide], for which the IC50 in assay [1] and in assay [2] was under 0.1 µM throughout.
For the compound `N#Cc1cncc2ncc(N3CCN(S(=O)(=O)c4ccc(OC(F)(F)F)cc4)[C@@H](C(=O)NCc4ccc(OC(F)(F)F)cc4)C3)nc12` [Example 872, (R)-4-(8-cyano-pyrido[3,4-b]pyrazin-2-yl)-1-(4-trifluoromethoxy-benzenesulfonyl)-piperazine-2-carboxylic acid 4-trifluoromethoxy-benzylamide], the IC50 in assay [1] and in assay [2] was under 0.1 µM throughout.
For `O=C(NCc1ccc(OC(F)(F)F)cc1)[C@H]1CN(c2nc3cn[nH]c(=O)c3s2)CCN1S(=O)(=O)c1ccc(Cl)cc1` [Example 873, (R)-1-(4-chloro-benzenesulfonyl)-4-(7-oxo-6,7-dihydro-thiazolo[4,5-d]pyridazin-2-yl)-piperazine-2-carboxylic acid 4-trifluoromethoxy-benzylamide], the IC50 in assay [1] and in assay [2] was under 0.1 µM each time.
On to `O=C(O)c1n[nH]c(=O)c2sc(N3CCN(S(=O)(=O)c4ccc(OC(F)(F)F)cc4)[C@@H](C(=O)NCc4ccc(OC(F)(F)F)cc4)C3)nc12` [Example 874, 7-oxo-2-[(R)-4-(4-trifluoromethoxy-benzenesulfonyl)-3-(4-trifluoromethoxy-benzylcarbamoyl)-piperazin-1-yl]-6,7-dihydro-thiazolo[4,5-d]pyridazine-4-carboxylic acid], for which the IC50 in assay [1] and in assay [2] was under 0.1 µM each time.
With `CNC(=O)c1n[nH]c(=O)c2sc(N3CCN(S(=O)(=O)c4ccc(OC(F)(F)F)cc4)[C@@H](C(=O)NCc4ccc(OC(F)(F)F)cc4)C3)nc12` [Example 875, 7-oxo-2-[(R)-4-(4-trifluoromethoxy-benzenesulfonyl)-3-(4-trifluoromethoxy-benzylcarbamoyl)-piperazin-1-yl]-6,7-dihydro-thiazolo[4,5-d]pyridazine-4-carboxylic acid methylamide], the IC50 in assay [1] and in assay [2] was under 0.1 µM each time.

The values are drawn from patent publication US8017612B2, “Piperazine compound and use thereof as a HCV polymerase inhibitor” (priority 2006, dated 2011).
